Source: BigSolDB 2.1

Cn1c(=O)c2[nH]cnc2n(C)c1=O
Conditions	solubility (mole fraction)
in ethanol, 309.4 K	0.0008
in ethanol, 313 K	0.0013
in ethanol, 318.6 K	0.002
in ethanol, 321.3 K	0.0027
in ethanol, 325.2 K	0.0036
in ethanol, 332.8 K	0.005
in ethanol, 340.1 K	0.0083
in ethanol, 345.3 K	0.0123
in n-octanol, 322.3 K	0.001
in n-octanol, 327.2 K	0.0013
in n-octanol, 330.2 K	0.0017
in n-octanol, 336.7 K	0.0025
in n-octanol, 337.5 K	0.0027
in n-octanol, 343.8 K	0.0045
in n-octanol, 352.1 K	0.0063
in n-octanol, 355.3 K	0.0069
in n-octanol, 364.5 K	0.008
in water, 308.5 K	0.0004
in water, 310.6 K	0.0005
in water, 314.5 K	0.0007
in water, 316.7 K	0.0009
in water, 319.3 K	0.001
in water, 323.4 K	0.0012
in water, 326.2 K	0.0018
in water, 333.3 K	0.0026
in water, 337.6 K	0.0039
in water, 342.6 K	0.0064
in water, 343.1 K	0.007

Cn1c(=O)c2c(ncn2CCO)n(C)c1=O
Conditions	solubility (mole fraction)
in ethanol, 313.9 K	0.001
in ethanol, 321.2 K	0.0016
in ethanol, 325.7 K	0.0023
in ethanol, 327.4 K	0.0029
in ethanol, 332.5 K	0.004
in ethanol, 336.8 K	0.0055
in ethanol, 339.1 K	0.0065
in ethanol, 339.7 K	0.0068
in ethanol, 342.4 K	0.0077
in ethanol, 343.8 K	0.0081
in ethanol, 344.9 K	0.0086
in n-octanol, 323.2 K	0.0026
in n-octanol, 333.2 K	0.0046
in n-octanol, 335.2 K	0.006
in n-octanol, 338.4 K	0.0074
in n-octanol, 343.5 K	0.0095
in n-octanol, 351.8 K	0.0149
in n-octanol, 355.5 K	0.02
in n-octanol, 365.2 K	0.0259
in water, 290.7 K	0.0027
in water, 300.9 K	0.0039
in water, 301.6 K	0.0041
in water, 303.4 K	0.0042
in water, 304.6 K	0.0048
in water, 306 K	0.0052
in water, 312.5 K	0.0067
in water, 312.8 K	0.0067
in water, 316.2 K	0.0086
in water, 317.9 K	0.0099
in water, 320.5 K	0.0119
in water, 322.5 K	0.0133
in water, 324.9 K	0.0155
in water, 330.8 K	0.0204
in water, 334.7 K	0.026
in water, 342 K	0.0447
in water, 347.3 K	0.0623
in water, 348.4 K	0.0808

Cn1cnc2c1c(=O)[nH]c(=O)n2C
solubility (mole fraction)
Conditions	293.15 K	298.15 K	303.15 K	308.15 K	313.15 K	318.15 K
in ethanol	1.53e-05	2.33e-05	3.15e-05	3.85e-05	5.49e-05	6.34e-05
in n-octanol	0.000214	0.000433	–	0.00061	–	0.000824
in water	0.001	0.00101	0.00101	0.00103	0.00104	0.00104
